According to patent US10799605B2 (3B PHARMACEUTICALS GMBH, priority 2014, dated 2020):
Where two headings read alike, the source gives them in different places.

Columns and labels:
[1] = Plasma protein binding assay, mouse; assay type: in vitro ADME; details: plasma proteins, 4 h at 37° C., equilibrium dialysis, read-out: % bound [mouse] (converted)
From the text: A drug's efficiency may be affected by the degree to which it binds to the proteins within blood plasma. A drug in blood exists in two forms: bound and unbound. Depending on a specific drug's affinity for plasma protein, a proportion of the drug may become bound to plasma proteins, with the remainder being unbound. […] It is also the fraction that may be metabolized and/or excreted. Protein binding can influence the drug's biological half-life in the body. The bound portion may act as a reservoir or depot from which the drug is slowly released as the unbound form. In order to determine the binding characteristics of the compounds of the present invention as listed in the following Table to human or mouse plasma protein, respectively, a plasma protein binding assay was carried out. All compounds have a plasma protein binding that is appropriate for diagnostic, therapeutic and theranostic use of these compounds according to the present invention.
The binding of test substances to human and murine plasma proteins was tested by Cerep (Celle l'Evescault, France; Catalog reference 2194 [human] and 2223 [mouse]) according to Banker et al., J. Pharm. Sci., 2003, 92, 967-974. Test compounds were incubated with human or murine plasma proteins for 4 h at 37° C. Subsequently, the fraction of compound bound to plasma proteins was determined by equilibrium dialysis and HPLC-MS/MS detection. […]

[2] = test system: alpha 2 (non-selective); assay: ExpresSProfile: alpha2 adrenergic receptor, antagonist radioligand; assay type: binding; details: Test Concentration 1.0E−05 M
[3] = test system: BZD (central); assay: ExpresSProfile: benzodiazepine, agonist radioligand; assay type: binding; details: Test Concentration 1.0E−05 M
[4] = target: CCK1 (CCKA) (h) (Homo sapiens (Human), UniProt P32238); assay: ExpresSProfile: cholecystokinin receptor 1, agonist radioligand; assay type: binding; details: Test Concentration 1.0E−05 M
[5] = target: D1 (h) (Homo sapiens (Human), UniProt P21728); assay: ExpresSProfile: dopamine receptor 1, antagonist radioligand; assay type: binding; details: Test Concentration 1.0E−05 M
[6] = target: H1 (h) (Homo sapiens (Human), UniProt P35367); assay: ExpresSProfile: histamine receptor 1, antagonist radioligand; assay type: binding; details: Test Concentration 1.0E−05 M
[7] = target: H2 (h) (Homo sapiens (Human), UniProt P25021); assay: ExpresSProfile: histamine receptor 2, antagonist radioligand; assay type: binding; details: Test Concentration 1.0E−05 M
[8] = target: MT1 (ML1A) (h) (Homo sapiens (Human), UniProt P48039); assay: ExpresSProfile: melatonin receptor 1, agonist radioligand; assay type: binding; details: Test Concentration 1.0E−05 M
[9] = target: M1 (h) (Homo sapiens (Human), UniProt P11229); assay: ExpresSProfile: muscarinic receptor 1, antagonist radioligand; assay type: binding; details: Test Concentration 1.0E−05 M
[10] = target: NTS1 (NT1) (h) (Homo sapiens (Human), UniProt P30989); assay: ExpresSProfile: neurotensin receptor 1, agonist radioligand; assay type: binding; details: Test Concentration 1.0E−05 M
[11] = target: delta 2 (DOP) (h) (Homo sapiens (Human), UniProt P41143); assay: ExpresSProfile: delta2 opioid receptor, agonist radioligand; assay type: binding; details: Test Concentration 1.0E−05 M
[12] = target: EP4 (h) (Homo sapiens (Human), UniProt P35408); assay: ExpresSProfile: prostaglandin e receptor type 4, agonist radioligand; assay type: binding; details: Test Concentration 1.0E−05 M
[13] = target: 5-HT1A (h) (Homo sapiens (Human), UniProt P08908); assay: ExpresSProfile: 5-hydroxytryptamine receptor 1A, agonist radioligand; assay type: binding; details: Test Concentration 1.0E−05 M
[14] = target: 5-HT2B (h) (Homo sapiens (Human), UniProt P41595); assay: ExpresSProfile: 5-hydroxytryptamine receptor 2B, agonist radioligand; assay type: binding; details: Test Concentration 1.0E−05 M
[15] = target: 5-HT3 (h) (Homo sapiens (Human), UniProt P46098); assay: ExpresSProfile: 5-hydroxytryptamine channel 3, antagonist radioligand; assay type: binding; details: Test Concentration 1.0E−05 M
[16] = target: 5-HT5a (h) (Homo sapiens (Human), UniProt P47898); assay: ExpresSProfile: 5-hydroxytryptamine receptor 5a, agonist radioligand; assay type: binding; details: Test Concentration 1.0E−05 M
[17] = target: 5-HT6 (h) (Homo sapiens (Human), UniProt P50406); assay: ExpresSProfile: 5-hydroxytryptamine receptor 6, agonist radioligand; assay type: binding; details: Test Concentration 1.0E−05 M
[18] = target: VPAC1 (VIP1) (h) (Homo sapiens (Human), UniProt P32241); assay: ExpresSProfile: vasoactive intestinal polypeptide receptor 1, agonist radioligand; assay type: binding; details: Test Concentration 1.0E−05 M
[19] = target: V1a (h) (Homo sapiens (Human), UniProt P37288); assay: ExpresSProfile: V1a, agonist radioligand; assay type: binding; details: Test Concentration 1.0E−05 M
[20] = test system: Ca2+ channel (L, verapamil site) (phenylalkylamine); assay: ExpresSProfile: Ca2+ channel, antagonist radioligand; assay type: binding; details: Test Concentration 1.0E−05 M
[21] = test system: SKCa channel; assay: ExpresSProfile: SKCa channel, antagonist radioligand; assay type: binding; details: Test Concentration 1.0E−05 M
[22] = read-out: % Inhibition of Control Specific Binding
[23] = read-out: % of Control Specific Binding 1st
[24] = read-out: % of Control Specific Binding 2nd
[25] = read-out: % of Control Specific Binding Mean

Sequence of 5-HT2B (h) (P41595 whole entry): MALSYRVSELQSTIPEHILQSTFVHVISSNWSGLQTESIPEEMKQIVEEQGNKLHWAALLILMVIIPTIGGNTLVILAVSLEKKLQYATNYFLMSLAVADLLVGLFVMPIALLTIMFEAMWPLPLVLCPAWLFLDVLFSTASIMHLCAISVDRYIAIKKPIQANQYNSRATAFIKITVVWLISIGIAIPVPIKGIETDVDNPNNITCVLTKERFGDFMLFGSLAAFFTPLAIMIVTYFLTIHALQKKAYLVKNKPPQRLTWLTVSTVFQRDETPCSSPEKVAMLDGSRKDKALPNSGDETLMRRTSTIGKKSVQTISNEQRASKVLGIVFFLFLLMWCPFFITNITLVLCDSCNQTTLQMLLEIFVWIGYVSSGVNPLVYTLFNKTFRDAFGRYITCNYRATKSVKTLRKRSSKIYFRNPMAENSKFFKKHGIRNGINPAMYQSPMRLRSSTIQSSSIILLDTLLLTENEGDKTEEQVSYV
Sequence of 5-HT5a (h) (P47898 whole entry): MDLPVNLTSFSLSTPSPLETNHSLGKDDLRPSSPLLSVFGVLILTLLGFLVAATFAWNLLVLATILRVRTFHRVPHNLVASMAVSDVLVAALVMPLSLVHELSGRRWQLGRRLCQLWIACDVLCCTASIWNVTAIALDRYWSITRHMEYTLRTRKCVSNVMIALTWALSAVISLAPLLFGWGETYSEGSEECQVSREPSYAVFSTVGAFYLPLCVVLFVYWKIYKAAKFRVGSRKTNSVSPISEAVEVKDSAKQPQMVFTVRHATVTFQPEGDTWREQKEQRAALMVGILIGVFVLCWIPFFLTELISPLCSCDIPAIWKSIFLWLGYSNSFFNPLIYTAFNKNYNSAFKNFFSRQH
Sequence of NTS1 (NT1) (h) (P30989 whole entry): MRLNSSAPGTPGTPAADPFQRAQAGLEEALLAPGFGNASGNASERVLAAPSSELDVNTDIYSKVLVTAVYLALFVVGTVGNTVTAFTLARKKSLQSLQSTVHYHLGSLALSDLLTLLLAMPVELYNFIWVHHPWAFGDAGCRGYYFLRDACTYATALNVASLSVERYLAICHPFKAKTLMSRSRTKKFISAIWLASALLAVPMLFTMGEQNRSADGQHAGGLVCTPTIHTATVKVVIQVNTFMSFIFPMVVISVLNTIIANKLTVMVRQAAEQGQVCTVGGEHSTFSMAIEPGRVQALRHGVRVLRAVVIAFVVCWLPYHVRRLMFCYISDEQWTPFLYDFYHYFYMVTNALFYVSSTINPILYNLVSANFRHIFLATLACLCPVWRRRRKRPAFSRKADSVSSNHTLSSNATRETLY
Sequence of EP4 (h) (P35408 whole entry): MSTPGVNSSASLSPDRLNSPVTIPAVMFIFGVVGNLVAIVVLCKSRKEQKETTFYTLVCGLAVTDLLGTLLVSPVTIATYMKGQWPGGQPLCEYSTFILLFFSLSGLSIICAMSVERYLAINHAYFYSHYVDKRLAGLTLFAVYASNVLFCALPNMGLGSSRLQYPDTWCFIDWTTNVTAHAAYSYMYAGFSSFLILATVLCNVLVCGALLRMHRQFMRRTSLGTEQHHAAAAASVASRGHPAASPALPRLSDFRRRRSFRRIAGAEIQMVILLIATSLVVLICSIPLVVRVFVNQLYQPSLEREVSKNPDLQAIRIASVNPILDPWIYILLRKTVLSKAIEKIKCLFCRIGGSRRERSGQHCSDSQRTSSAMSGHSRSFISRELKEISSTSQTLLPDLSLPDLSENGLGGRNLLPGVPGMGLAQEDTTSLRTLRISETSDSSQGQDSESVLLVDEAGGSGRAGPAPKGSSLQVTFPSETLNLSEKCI
Sequence of 5-HT3 (h) (P46098 24-478): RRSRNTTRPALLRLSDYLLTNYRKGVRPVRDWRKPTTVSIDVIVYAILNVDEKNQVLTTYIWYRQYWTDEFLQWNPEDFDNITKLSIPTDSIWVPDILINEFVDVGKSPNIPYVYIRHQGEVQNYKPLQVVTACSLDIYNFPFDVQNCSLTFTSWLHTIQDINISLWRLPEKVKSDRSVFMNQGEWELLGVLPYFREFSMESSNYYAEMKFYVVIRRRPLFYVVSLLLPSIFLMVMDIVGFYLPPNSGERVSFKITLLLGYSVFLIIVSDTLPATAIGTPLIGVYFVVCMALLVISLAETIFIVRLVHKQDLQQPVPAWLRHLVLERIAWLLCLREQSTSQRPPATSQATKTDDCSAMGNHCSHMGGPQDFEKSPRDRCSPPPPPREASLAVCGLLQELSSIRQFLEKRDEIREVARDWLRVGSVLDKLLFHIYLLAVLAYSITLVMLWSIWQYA
Sequence of CCK1 (CCKA) (h) (P32238 whole entry): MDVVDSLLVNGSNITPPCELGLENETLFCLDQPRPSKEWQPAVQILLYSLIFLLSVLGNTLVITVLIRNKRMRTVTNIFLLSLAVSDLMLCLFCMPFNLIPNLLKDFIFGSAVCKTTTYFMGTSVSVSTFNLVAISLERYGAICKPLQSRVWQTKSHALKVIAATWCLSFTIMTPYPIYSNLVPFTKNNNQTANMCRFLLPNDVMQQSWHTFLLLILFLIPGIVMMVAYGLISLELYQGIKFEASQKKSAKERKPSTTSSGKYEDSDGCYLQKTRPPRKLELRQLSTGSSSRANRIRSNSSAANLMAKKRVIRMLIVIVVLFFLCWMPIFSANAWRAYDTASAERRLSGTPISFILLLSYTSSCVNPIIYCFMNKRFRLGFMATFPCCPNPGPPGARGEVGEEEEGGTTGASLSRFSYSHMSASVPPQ
Sequence of delta 2 (DOP) (h) (P41143 whole entry): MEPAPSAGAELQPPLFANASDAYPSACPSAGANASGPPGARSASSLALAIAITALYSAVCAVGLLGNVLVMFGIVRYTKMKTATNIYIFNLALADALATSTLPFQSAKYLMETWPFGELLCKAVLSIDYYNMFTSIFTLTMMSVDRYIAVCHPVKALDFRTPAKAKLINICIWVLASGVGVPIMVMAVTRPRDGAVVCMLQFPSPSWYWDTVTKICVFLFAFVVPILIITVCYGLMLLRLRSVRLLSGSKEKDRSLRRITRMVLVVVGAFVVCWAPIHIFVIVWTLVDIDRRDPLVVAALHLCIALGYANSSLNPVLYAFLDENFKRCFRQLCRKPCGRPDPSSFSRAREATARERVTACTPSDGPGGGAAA
Sequence of 5-HT6 (h) (P50406 whole entry): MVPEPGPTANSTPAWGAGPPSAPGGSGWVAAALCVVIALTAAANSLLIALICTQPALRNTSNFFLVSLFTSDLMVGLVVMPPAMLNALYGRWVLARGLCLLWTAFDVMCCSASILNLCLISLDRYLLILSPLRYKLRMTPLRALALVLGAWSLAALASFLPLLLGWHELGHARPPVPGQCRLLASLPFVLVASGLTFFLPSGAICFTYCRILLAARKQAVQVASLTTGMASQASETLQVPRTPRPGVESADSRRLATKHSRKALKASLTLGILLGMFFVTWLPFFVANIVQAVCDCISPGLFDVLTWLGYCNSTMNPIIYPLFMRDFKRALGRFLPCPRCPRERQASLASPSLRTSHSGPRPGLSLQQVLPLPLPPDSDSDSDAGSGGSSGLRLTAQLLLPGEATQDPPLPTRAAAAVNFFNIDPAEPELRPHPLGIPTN
Sequence of VPAC1 (VIP1) (h) (P32241 31-457): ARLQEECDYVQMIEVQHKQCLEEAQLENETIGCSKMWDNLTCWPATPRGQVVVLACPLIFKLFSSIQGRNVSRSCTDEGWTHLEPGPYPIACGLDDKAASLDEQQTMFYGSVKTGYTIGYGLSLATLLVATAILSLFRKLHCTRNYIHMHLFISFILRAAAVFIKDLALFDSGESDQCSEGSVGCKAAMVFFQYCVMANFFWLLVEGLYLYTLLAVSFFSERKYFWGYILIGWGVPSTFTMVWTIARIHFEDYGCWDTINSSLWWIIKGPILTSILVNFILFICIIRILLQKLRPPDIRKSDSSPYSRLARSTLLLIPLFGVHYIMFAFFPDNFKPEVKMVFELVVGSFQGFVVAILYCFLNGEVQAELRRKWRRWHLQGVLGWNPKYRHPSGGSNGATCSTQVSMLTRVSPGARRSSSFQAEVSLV
Sequence of D1 (h) (P21728 whole entry): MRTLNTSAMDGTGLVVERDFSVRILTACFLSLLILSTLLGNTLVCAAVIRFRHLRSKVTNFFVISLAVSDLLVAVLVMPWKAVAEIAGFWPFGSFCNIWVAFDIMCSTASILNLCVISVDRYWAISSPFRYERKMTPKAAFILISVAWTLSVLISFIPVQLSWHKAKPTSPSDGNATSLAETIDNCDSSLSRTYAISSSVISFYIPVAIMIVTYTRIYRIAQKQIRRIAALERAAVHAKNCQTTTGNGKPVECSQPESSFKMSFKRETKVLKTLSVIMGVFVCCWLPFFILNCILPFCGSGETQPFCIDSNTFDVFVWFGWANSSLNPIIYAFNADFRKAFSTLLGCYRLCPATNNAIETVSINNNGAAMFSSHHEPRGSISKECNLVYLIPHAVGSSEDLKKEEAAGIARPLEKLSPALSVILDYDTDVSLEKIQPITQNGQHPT
Sequence of H1 (h) (P35367 whole entry): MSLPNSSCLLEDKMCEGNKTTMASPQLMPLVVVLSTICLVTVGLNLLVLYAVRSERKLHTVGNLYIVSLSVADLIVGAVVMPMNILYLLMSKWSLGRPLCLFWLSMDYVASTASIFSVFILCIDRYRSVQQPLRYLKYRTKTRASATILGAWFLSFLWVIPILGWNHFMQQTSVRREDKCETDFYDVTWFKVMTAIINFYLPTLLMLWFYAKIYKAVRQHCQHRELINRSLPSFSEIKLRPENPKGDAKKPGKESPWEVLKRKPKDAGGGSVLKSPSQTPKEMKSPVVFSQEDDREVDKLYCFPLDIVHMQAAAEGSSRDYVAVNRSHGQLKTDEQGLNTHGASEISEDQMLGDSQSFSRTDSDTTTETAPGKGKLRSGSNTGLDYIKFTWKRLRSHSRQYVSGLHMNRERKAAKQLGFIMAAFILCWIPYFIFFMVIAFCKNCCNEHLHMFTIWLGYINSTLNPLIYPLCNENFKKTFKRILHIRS

## COc1cccc(OC)c1-c1cc(C(=O)NC2(C(=O)O)C3CC4CC(C3)CC2C4)nn1-c1ccc(C(=O)N(C)CCCN(C)CCCN(C)C(=O)CN2CCN(CC(=O)O)CCN(CC(=O)O)CCN(CC(=O)O)CC2)cc1C(C)C (stereo not drawn) [(IIIa), 2-{[1-{4-[(3-{[3-(DOTA-methyl-amino)-propyl]-methyl-amino}-propyl)-methyl-carbamoyl]-2-isopropyl-phenyl}-5-(2,6-dimethoxy-phenyl)-1H-pyrazole-3-carbonyl]-amino}-adamantane-2-carboxylic acid]
[1]
  fraction unbound at 4 h: 0.11
[2]
  % Inhibition of Control Specific Binding: −10%
  % of Control Specific Binding 1st: 114.4%
  % of Control Specific Binding 2nd: 106.1%
  % of Control Specific Binding Mean: 110.3%
[3]
  % Inhibition of Control Specific Binding: −16%
  % of Control Specific Binding 1st: 109.4%
  % of Control Specific Binding 2nd: 122.6%
  % of Control Specific Binding Mean: 116.0%
[4]; [22]
  inhibition at 10 µM: -18%
[4]; [23]
  remaining activity at 10 µM: 102%
[4]; [24]
  remaining activity at 10 µM: 135%
[4]; [25]
  remaining activity at 10 µM: 118%
[5]; [22]
  inhibition at 10 µM: -5%
[5]; [23]
  remaining activity at 10 µM: 114%
[5]; [24]
  remaining activity at 10 µM: 96.3%
[5]; [25]
  remaining activity at 10 µM: 105%
[6]; [22]
  inhibition at 10 µM: -12%
[6]; [23]
  remaining activity at 10 µM: 121%
[6]; [24]
  remaining activity at 10 µM: 103%
[6]; [25]
  remaining activity at 10 µM: 112%
[7]; [22]
  inhibition at 10 µM: -4%
[7]; [23]
  remaining activity at 10 µM: 106%
[7]; [24]
  remaining activity at 10 µM: 102%
[7]; [25]
  remaining activity at 10 µM: 104%
[8]; [22]
  inhibition at 10 µM: 1%
[8]; [23]
  remaining activity at 10 µM: 103%
[8]; [24]
  remaining activity at 10 µM: 95.9%
[8]; [25]
  remaining activity at 10 µM: 99.3%
[9]; [22]
  inhibition at 10 µM: -25%
[9]; [23]
  remaining activity at 10 µM: 111%
[9]; [24]
  remaining activity at 10 µM: 138%
[9]; [25]
  remaining activity at 10 µM: 125%
[10]; [22]
  inhibition at 10 µM: 99%
[10]; [23]
  remaining activity at 10 µM: 2.7%
[10]; [24]
  remaining activity at 10 µM: -0.1%
[10]; [25]
  remaining activity at 10 µM: 1.3%
[11]; [22]
  inhibition at 10 µM: -6%
[11]; [23]
  remaining activity at 10 µM: 107%
[11]; [24]
  remaining activity at 10 µM: 105%
[11]; [25]
  remaining activity at 10 µM: 106%
[12]; [22]
  inhibition at 10 µM: 8%
[12]; [23]
  remaining activity at 10 µM: 89.2%
[12]; [24]
  remaining activity at 10 µM: 95.5%
[12]; [25]
  remaining activity at 10 µM: 92.3%
[13]; [22]
  inhibition at 10 µM: -29%
[13]; [23]
  remaining activity at 10 µM: 130%
[13]; [24]
  remaining activity at 10 µM: 129%
[13]; [25]
  remaining activity at 10 µM: 129%
[14]; [22]
  inhibition at 10 µM: -22%
[14]; [23]
  remaining activity at 10 µM: 118%
[14]; [24]
  remaining activity at 10 µM: 125%
[14]; [25]
  remaining activity at 10 µM: 122%
[15]; [22]
  inhibition at 10 µM: -8%
[15]; [23]
  remaining activity at 10 µM: 108%
[15]; [24]
  remaining activity at 10 µM: 108%
[15]; [25]
  remaining activity at 10 µM: 108%
[16]; [22]
  inhibition at 10 µM: -2%
[16]; [23]
  remaining activity at 10 µM: 109%
[16]; [24]
  remaining activity at 10 µM: 95.2%
[16]; [25]
  remaining activity at 10 µM: 102%
[17]; [22]
  inhibition at 10 µM: -6%
[17]; [23]
  remaining activity at 10 µM: 106%
[17]; [24]
  remaining activity at 10 µM: 105%
[17]; [25]
  remaining activity at 10 µM: 106%
[18]; [22]
  inhibition at 10 µM: -6%
[18]; [23]
  remaining activity at 10 µM: 104%
[18]; [24]
  remaining activity at 10 µM: 107%
[18]; [25]
  remaining activity at 10 µM: 106%
[19]; [22]
  inhibition at 10 µM: 6%
[19]; [23]
  remaining activity at 10 µM: 94.1%
[19]; [24]
  remaining activity at 10 µM: 93%
[19]; [25]
  remaining activity at 10 µM: 93.5%
[20]
  % Inhibition of Control Specific Binding: 0%
  % of Control Specific Binding 1st: 96.1%
  % of Control Specific Binding 2nd: 103.7%
  % of Control Specific Binding Mean: 99.9%
[21]
  % Inhibition of Control Specific Binding: 4%
  % of Control Specific Binding 1st: 97.3%
  % of Control Specific Binding 2nd: 95.2%
  % of Control Specific Binding Mean: 96.2%
